The text below walks through data of patent US8455244B2, “Co-crystallization of ERR-α with a ligand that forms a reversible covalent bond” (Janssen Pharmaceutica N.V., priority 2009, dated 2013).

In general, EC50 refers to the concentration needed to bring the measured effect to its halfway point.

The target of assay [1] is T1, ERR-α (Homo sapiens, UniProt P11474).
T1 sequence (P11474 with tags, fused parts or gaps): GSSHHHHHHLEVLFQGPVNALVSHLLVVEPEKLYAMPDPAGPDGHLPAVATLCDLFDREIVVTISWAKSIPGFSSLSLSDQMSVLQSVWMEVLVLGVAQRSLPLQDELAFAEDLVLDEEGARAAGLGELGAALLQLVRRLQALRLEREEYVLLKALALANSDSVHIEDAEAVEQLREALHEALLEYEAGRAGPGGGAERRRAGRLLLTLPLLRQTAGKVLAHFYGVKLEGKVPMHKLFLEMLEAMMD
The assay is described as follows: LC/MS dissociation rate with 20-fold excess Compound 2 as competing ligand. The following applies: ligand 1 μM, ERR-α 0.5 μM, competing ligand 20 μM, 37° C., assumed first order. The format is binding. Also noted: made in house; host or cells: Spodoptera frugiperda (Sf9) insect cells, baculovirus. The source says: The progress of the reaction was also expressed as a fraction of the area observed for the complex of ERR-α and the competing ligand over the sum of total area for the complex of ERR-α with the ligand and the complex of ERR-α with the competing ligand.
where k is the apparent rate constant.

Assay [2] addresses ERR-α (Homo sapiens, UniProt P11474). Description: biochemical. The protocol:
For TR-FRET measurements, the reaction was buffered in 25 mM Tris pH 8, 2.5 mM Hepes, 20 mM KCl, 1 mM DTT, and 0.05 mg/mL BSA (-lipids). […] Reactions were allowed to reach equilibrium at 25° C. for 4-18 hours before collecting data on the Analyst from LJL Biosystems (Molecular Devices Sunnyvale, Calif.).
Target sequence in this assay (P11474 with tags, fused parts or gaps limits assumed): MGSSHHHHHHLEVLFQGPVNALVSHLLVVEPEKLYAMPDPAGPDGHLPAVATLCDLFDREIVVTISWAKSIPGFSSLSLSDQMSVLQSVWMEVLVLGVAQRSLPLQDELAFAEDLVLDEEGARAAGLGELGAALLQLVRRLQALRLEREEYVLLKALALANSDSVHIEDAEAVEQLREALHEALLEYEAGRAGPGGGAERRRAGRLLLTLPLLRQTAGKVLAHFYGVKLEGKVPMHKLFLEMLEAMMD

The target in assay [3] is T1, ERR-α. The assay is described as follows: biochemical. The conditions noted are these: pH 7.9, read-out: ka.
Description: To monitor the kinetics of association and dissociation for ligands that formed a complex with ERR-α by forming a covalent bond to Cys325 of ERR-α, LC/MS detection was employed. LC analysis was performed on an Agilent 1100 LC system that was in line with an Agilent MSD TOF for mass detection. Software provided by the vendor was used to deconvolute the ESI positive ion quadrupole time-of-flight spectra. To measure association rates, typically a 1 μM ERR-α solution was mixed with an equal volume of a 2 μM ligand solution. […]
For the apo form of ERR-α, a mass of 27042 was detected, corresponding to an amino acid sequence where the initiator methionine is cleaved followed by N-terminal acetylation.
Association and dissociation rates for ligands were determined by fitting fractional values obtained for the progress of the reaction as a function of time using a single exponential equation progress of reaction=e^−kt
where k is the apparent rate constant. For the dissociation experiments, the reaction is assumed to be first order and dissociation rates, kd, are expressed as s^−1. For the association rates, k^a, the reaction is assumed to be second order and the rates are expressed as M^−1s^−1 by dividing the apparent rate constants by the concentration of the protein determined by experimental conditions (Table 4).

Compound `COc1cc(/C=C2\SC(N)=NC2=O)ccc1Oc1ccc(C#N)cc1C(F)(F)F` [Compound 5] showed a kd at ERR-α [1] of 2.05e-05 s⁻¹.
Consider `CN1CCN(C2=NC(=O)/C(=C/c3ccc(Oc4ccc(C#N)cc4C(F)(F)F)c(F)c3)S2)CC1` [Compound 4], for which the kd at ERR-α [1] is 2.19e-05 s⁻¹.
At ERR-α [2], `COC(=O)c1ccc(Oc2ccc(/C=C3\SC(=O)NC3=O)cc2OC)c(C(F)(F)F)c1` [Compound 2] gave an EC50 of 11 nM.
Regarding `COc1cc(/C=C2\SC(N3CCN(C)CC3)=NC2=O)ccc1Oc1ccc(C#N)cc1C(F)(F)F` [Compound 3], on ERR-α [1], the kd was 1.53e-05 s⁻¹.
Turning to `COc1cc(/C=C2\SC(=O)NC2=O)ccc1Oc1ccc(C#N)cc1C(F)(F)F` [Compound 1], at ERR-α [3], the kon was 6600 M⁻¹ s⁻¹. At ERR-α [1], this compound came in with a kd of 1.1e-05 s⁻¹.
